Values joined by “and” are separate entries in the source; they are usually repeats but may differ in a detail not shown here. Equal values may be shown once.

The subject of data set [1] is G-quadruplex (fluo-GGGTTAGGGTTAGGGTTAGGG-tamra oligonucleotide, SEQ ID No. 1). The data set can be described thus: G-quadruplex stabilization, Tm in fluorescence (FRET method). Format: binding. Conditions: 1 μM colorant; 0.1 M LiCl 10 mM cacodylate buffer pH 7.6; 0.2 μM oligonucleotide. As to the method:
All the experiments were carried out in a 10 mM sodium cacodylate buffer of pH 7.6 containing 0.1 M of lithium chloride (or sodium chloride). The absence of fluorescent contamination in the buffer was verified beforehand. The fluorescent oligonucleotide is added at the final concentration of 0.2 μM.
The identification of G-quartets ligands was carried out by fluorescence according to the FRET (Fluorescence Resonance Energy Transfer) method which corresponds to a dipole-dipole resonance interaction between two molecules close to each other, one of which, the donor, transfers its excitation energy to the other molecule, or acceptor. The formation of an intramolecular G-quartet structure must bring the 2 chromophores close enough to be able to observe a transfer of energy.
All the fluorescence measurements were carried out on a Spex Fluorolog DM1B apparatus, using an excitation line width of 1.8 nm and an emission line width of 4.5 nm. The specimens are placed in a micro quartz dish measuring 0.2×1 cm. The temperature of the specimen is controlled by an external water bath. The single oligonucleotide was analysed at 20, 30, 40, 50, 60, 70 and 80° C. The emission spectra are recorded using an excitation wavelength of 470 nm. The excitation spectra are recorded using either 515 nm, or 588 nm as emission wavelength. The spectra are adjusted to take account of the response of the instrument by reference curves. A substantial extinction (80-90%) of the fluorescence of the fluorescein at ambient temperature is observed, in keeping with an intramolecular folding of the oligonucleotide at 20° C. in the form of a G-quadruplex, which induces a juxtaposition of its 5′ and 3′ ends, respectively bound to the fluorescein and to the tetramethylrhodamine (tamra in short). This juxtaposition involves a phenomenon already described, extinction of fluorescence of the donor by FRET, and a sensitized emission of the acceptor.
A stock solution of oligonucleotide at the strand concentration of 0.2 μM in a 0.1 M LiCl 10 mM cacodylate buffer of pH 7.6 is prepared beforehand, heated briefly to 90° C. and cooled slowly to 20° C., then distributed by aliquots of 600 μl in the fluorescence dishes. 3 μl of water (for the control) or 3 μl of the product to be tested (stock at 200 μM, final concentration 1 μm) are then added and mixed. The specimens are then left to incubate for at least 1 hour at 20° C. before each measurement.
Each experiment allows only a single specimen to be measured. This is firstly incubated at an initial temperature of 20° C., raised to 80° C. in 40 minutes, left for 5 minutes at 80° C., then cooled to 20° C. in 62 minutes. During this time, the fluorescence is measured simultaneously at two emission wavelengths (515 nm and 588 nm) using 470 nm as excitation wavelength. A measurement is carried out every 30 seconds. The temperature of the water bath is recorded in parallel, and the fluorescence profile as a function of the temperature is reconstituted from these values. The fluorescence profiles are then standardized between 20° C. and 80° C., and the temperature for which the emission intensity at 515 nm is the average of those and high and low temperature is called Tm. In these conditions, the Tm of the reference specimen without addition of product is 44° C. in a lithium chloride buffer. This temperature is increased to more than 55° C. in the sodium chloride buffer. The addition of a compound stabilizing the G-quadruplex induces an increase in the Tm. This increase is considered significant if it is greater than 3° C.
In the tests for which the results are reported below, two oligonucleotides were used of sequences SEQ ID No. 1 and SEQ ID No. 2, replaced at the 5′ end by a fluorescein (fluo in short) group and at 3′ end by a tamra group, conforming to the following sequences: […]

The next data set relates to human telomerase. The data set is described as follows: Telomerase inhibition, TRAP test with HL60 cell extract. The conditions noted are these: for IC50: TRAP test, HL60 cell lysate as source of telomerase; for in vitro inhibition of the telomerase (FIG. 3A, gel of elongation products): tested at 0.1, 1 and 10 μM. Format: biochemical.
Another data set has as its system triplex. The conditions noted are these: 15 μM colorant; cited from earlier work.
In the next data set the test system is human HeLa tumoral line. The data set can be described thus: Antiproliferative effect / cytotoxicity on HeLa cells (Cell Titer 96 Aqueous One Solution). In kind it is cell-based. The procedure: Cells of cancer lines are incubated for 3 days in the presence of different concentrations of compound 1.
These cells are cultured in a MEM (Life Technologies) medium containing 10% of decomplemented foetal calf serum, glutamine, nonessential amino acids (1%) and antibiotics (penicillin and streptomycin). The ligand is diluted in the culture medium after adhesion of the cells on 96-well plates (2500 cells per well). The number of cells is estimated by the “Cell Titer 96 Aqueous One Solution Cell Proliferation Assay” kit from Promega. Each measurement was carried out in quadruplicate. The cells are left in the presence of the compound for 1 to 4 days, then counted.

The IC50 is the concentration that gives 50% inhibition. For the compound `CN(C)CCCNCc1ccc2nc3ccc4cc5cc(CNCCCN(C)C)ccc5nc4c3cc2c1` [Compound 13], the “Δ Tm G4(FRET)” value in data set [1] was “+19.7 °C”. 0.028 µM corresponded to half-maximal inhibition in the data set with human telomerase (IC50).
On to `CN(C)CCCNCc1ccc2nc3c(ccc4cc5cc(CNCCCN(C)C)ccc5nc43)cc2c1` [Compound 6], for which the half-maximal inhibitory concentration (IC50) in the data set with human telomerase came out at 0.9 µM. The Δ Tm triplex in the data set with triplex was 16 °C.
On to `CCCNCc1ccc2nc3c(ccc4cc5cc(CNCCC)ccc5nc43)cc2c1` [Compound 5], for which, in data set [1], the “Δ Tm G4(FRET)” value is “+12.5 °C”. In the data set on human telomerase, this compound returned an IC50 of 0.5 µM. Further, in the data set on triplex, the Δ Tm triplex was 7 °C.
`c1cc2nc3ccc4cc5cc(CNCCCN6CCOCC6)ccc5nc4c3cc2cc1CNCCCN1CCOCC1` [Compound 12]: the “Δ Tm G4(FRET)” value in data set [1] is “+7 °C”. Besides, the IC50 with human telomerase is 0.48 µM.
Taken in the same sequence, the figures for `c1nc(CCNCc2ccc3nc4ccc5cc6cc(CNCCc7c[nH]cn7)ccc6nc5c4cc3c2)c[nH]1` [Compound 9] were “+10.5 °C” and 0.95 µM.
On to `c1ccc2c(CCNCc3ccc4nc5ccc6cc7cc(CNCCc8c[nH]c9ccccc89)ccc7nc6c5cc4c3)c[nH]c2c1` [Compound 10], for which the “Δ Tm G4(FRET)” value in data set [1] was “+8.4 °C”.
For the compound `c1ccc2nc3cc(CNCCN4CCCCC4)c4nc5ccccc5cc4c3cc2c1` [Compound 7], in data set [1], the “Δ Tm G4(FRET)” value was “+2.5 °C”. This compound yielded an IC50 in the data set on human telomerase of 2 µM.
Taken in the same sequence, the figures for `c1cn(CCCNCc2ccc3nc4ccc5cc6cc(CNCCCn7ccnc7)ccc6nc5c4cc3c2)cn1` [Compound 8] were “+15 °C” and 0.46 µM.
For `CCCNCc1cc2nc3ccccc3cc2c2cc3ccccc3nc12` [Compound 2], in data set [1], the “Δ Tm G4(FRET)” value is “+5.5 °C”. For the same compound, in the data set on human telomerase, the half-maximal inhibitory concentration (IC50) is 1.4 µM and 1.45 µM; the “in vitro inhibition of the telomerase (FIG. 3A, gel of elongation products)” value is on record as “inhibits the telomerase”. Besides, in the data set with triplex, the Δ Tm triplex is 37 °C.
For the compound “tetra [N-methyl pyridyl]porphyrin [reference compound]”, the “Δ Tm G4(FRET)” value in data set [1] was “approximately 4 °C”.
The term mortality denotes the percentage killed. Low values mean a weak lethal effect, high ones a strong lethal effect. On to `CCCNCc1ccc2nc3ccc4cc5cc(CNCCC)ccc5nc4c3cc2c1` [Compound 1], for which, in the data set with human telomerase, half-maximal inhibition (IC50) was put at 0.3 µM and the “in vitro inhibition of the telomerase (FIG. 3A, gel of elongation products)” value is listed as “disappearance of the bands with less mobility”. Moreover, the Δ Tm triplex with triplex is 20 °C. The half-inhibitory concentration (IC50) in the data set on human HeLa tumoral line (HeLa cells in the presence of compound for 24 hours) turned out to be 0.5 µM. In the data set on human HeLa tumoral line (HeLa cells incubated for 96 hours, 0.5 micromolars), this compound showed a mortality of 100%. Besides, in the data set with human HeLa tumoral line (HeLa cells, concentrations of 5 micromolars or more), the mortality rate stood at 100%.
In the data set with human telomerase, `CCCNCc1ccc2nc3ccc4nc5ccc(CNCCC)cc5cc4c3cc2c1` [Compound 4] displayed a concentration for half-maximal inhibition (IC50) of 1 µM. In addition, in the data set with triplex, the Δ Tm triplex is 18 °C.
For `CN(C)CCCNCc1cc2nc3ccccc3cc2c2cc3ccccc3nc12` [Compound 3], half-maximal inhibition in the data set with human telomerase (IC50) required 0.75 µM. The Δ Tm triplex in the data set on triplex is 44 °C.
Regarding `NCCCCNCc1ccc2nc3ccc4cc5cc(CNCCCCN)ccc5nc4c3cc2c1` [Compound 11], in data set [1], the “Δ Tm G4(FRET)” value is “+18 °C”. The compound further yielded an IC50 in the data set with human telomerase of 0.13 µM.

Source of the values: patent US20040034023A1, “Use of polycyclic aromatic compounds for making medicines capable of inhibiting telomerase” (priority 2000, published 2004).
